Paper PMC9469100, “Turning Nonselective Inhibitors of Type I Protein Arginine Methyltransferases into Potent and Selective Inhibitors of Protein Arginine Methyltransferase 4 through a Deconstruction–Reconstruction and Fragment-Growing Approach” (Journal of Medicinal Chemistry, 2022)
“Also recorded” adds a separate entry of the source. Where two headings read alike, the source gives them in different places.

Tests used:
[1] = molecular target: T1, human PRMT4 (full length) (Homo sapiens, UniProt Q86X55); test: SPR binding to immobilized PRMT4; conditions: for τR: in vitro residence time, τ = 1/koff
T1 construct: Full-length recombinant PRMT4 (Active motif, # 81107); purchased Active motif # 81107
T1 sequence (Q86X55 1-608): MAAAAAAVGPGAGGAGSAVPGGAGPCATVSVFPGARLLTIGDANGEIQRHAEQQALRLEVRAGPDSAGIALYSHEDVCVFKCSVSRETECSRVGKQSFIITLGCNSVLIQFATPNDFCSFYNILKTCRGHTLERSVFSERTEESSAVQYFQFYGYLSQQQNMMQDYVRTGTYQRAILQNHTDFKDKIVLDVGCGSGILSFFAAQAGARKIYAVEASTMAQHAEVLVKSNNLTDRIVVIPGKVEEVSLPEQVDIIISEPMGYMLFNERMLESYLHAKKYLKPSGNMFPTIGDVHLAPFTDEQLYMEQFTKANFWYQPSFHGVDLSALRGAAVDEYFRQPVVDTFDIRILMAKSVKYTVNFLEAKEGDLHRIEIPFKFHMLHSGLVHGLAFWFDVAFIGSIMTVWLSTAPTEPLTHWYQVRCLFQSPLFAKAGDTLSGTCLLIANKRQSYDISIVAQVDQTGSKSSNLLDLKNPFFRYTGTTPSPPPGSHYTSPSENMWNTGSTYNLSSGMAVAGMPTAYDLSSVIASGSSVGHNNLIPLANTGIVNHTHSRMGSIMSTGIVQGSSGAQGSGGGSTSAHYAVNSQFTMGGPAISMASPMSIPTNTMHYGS
Description: To this aim, human PRMT4 (full length) was covalently immobilized on a sensor chip surface using an amine-coupling approach, and the three compounds were injected at different concentrations over the protein surface. To reduce false positives from detergent-sensitive, nonspecific aggregation-based binding, detergents (0.05% Tween-20) were added to the running buffer in all experiments.
SPR experiments were performed on a Biacore T200 biosensor (Cytiva). PBS buffer (phosphate-buffered saline, pH 7.4) supplemented with 0.05% Tween-20 was used as the running buffer. […] One flow cell was left empty for background subtractions. […] Each compound was tested in […], prepared starting from 640 to 10 nM. Binding experiments were performed at 25 °C by using a flow rate of 30 μL/min, with 90 s monitoring of association and 90 s monitoring of dissociation. Regeneration of the surfaces was performed, when necessary, by a 10 s injection of 5 mM NaOH. […] The corrected sensorgrams for each compound were fitted simultaneously using a 1:1 Langmuir model to obtain equilibrium dissociation constants (KD) and kinetic dissociation (koff) and association (kon) constants.

PRMT7 = molecular target: T2, PRMT7 (Homo sapiens, UniProt Q9NVM4); test: Radioisotope-based filter-binding (HotSpot) assay, PRMT7; conditions: read-out: IC50 (μM) PRMT7; radioisotope-based filter assay; 5 μM GST-GAR; 1 μM 3H-SAM
T2 sequence (Q9NVM4 2-692): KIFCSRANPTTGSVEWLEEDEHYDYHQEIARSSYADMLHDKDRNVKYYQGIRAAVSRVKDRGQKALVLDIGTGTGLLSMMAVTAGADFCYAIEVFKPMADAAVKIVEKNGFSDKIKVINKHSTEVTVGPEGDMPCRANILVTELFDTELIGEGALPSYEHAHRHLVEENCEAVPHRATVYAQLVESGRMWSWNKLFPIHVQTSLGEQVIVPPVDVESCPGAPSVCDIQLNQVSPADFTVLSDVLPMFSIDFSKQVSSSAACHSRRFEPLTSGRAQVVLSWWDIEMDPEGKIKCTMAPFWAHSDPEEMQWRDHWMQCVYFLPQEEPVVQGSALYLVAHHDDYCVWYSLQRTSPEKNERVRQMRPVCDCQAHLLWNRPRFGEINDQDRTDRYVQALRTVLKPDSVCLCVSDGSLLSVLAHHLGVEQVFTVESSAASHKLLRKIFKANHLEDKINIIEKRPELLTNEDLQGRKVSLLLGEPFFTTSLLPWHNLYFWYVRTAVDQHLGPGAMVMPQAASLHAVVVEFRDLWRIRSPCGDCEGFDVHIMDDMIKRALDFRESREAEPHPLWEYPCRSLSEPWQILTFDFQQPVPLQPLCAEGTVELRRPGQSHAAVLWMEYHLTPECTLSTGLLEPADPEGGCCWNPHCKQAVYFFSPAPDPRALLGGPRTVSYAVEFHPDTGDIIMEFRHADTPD
Description: Then, ^3H-SAM (final concentration 1 μM) was delivered into the reaction mixture to initiate the reaction. After incubation for 60 min at 30 °C, the reaction mixture was delivered to filter paper for detection (as assessed by scintillation). Data were analyzed using Excel and GraphPad Prism 6.0 software (GraphPad Software Inc., San Diego, CA) for IC50 curve fits using sigmoidal dose vs response-variable slope (four parameters) equations.

PRMT4 (MCF7 cells) = test: Western blot with pan-PRMT4 substrate antibody, MCF7; conditions: 12h 10 and 50 μM, TP-064 10 μM; 4 and 8 days; PRMT4sub immunoblot
Description: (§2) HEK293T or MCF7 cells were treated with different compounds and then harvested and lysed at the indicated time, and the cell lysates were applied to Western blot analysis. In brief, cells were harvested and washed three times with cold PBS, and then cell lysis buffer (50 mM Tris-HCl, pH 7.5, 150 mM NaCl, 1% Nonidet P-40, 0.1% SDS, 1% sodium deoxycholate, 5 mM EDTA, supplemented with proteinase inhibitor mixture) was added to obtain the cell lysates. Cell debris was pelleted and discarded, whereas the supernatant was kept. Protein samples were added with SDS loading buffer and boiled for 10 min, followed by SDS-PAGE. Then the proteins were transferred to a PVDF membrane. The membrane was blocked with 5% fat-free milk for 1 h at room temperature and then incubated with primary antibodies (antihistone H3, Abcam, #ab18521; pan-PRMT4 substrate antibody, made in-house) at 4 °C overnight. The blot was then washed three times with PBST and incubated with secondary antibodies for 1 h at room temperature. After being washed three times with PBST, the membrane was incubated with ECL reagent, and the signals were detected on X-ray film.
(§3) The anti-PRMT4 substrate antibody was raised against the R388 site in the transcription factor NFIB.

[2] = tested on: panel of eight lysine methyltransferases (KMTs); test: Selectivity assay against a panel of KMTs; assay type: biochemical, human; conditions: 12h at 1 and 10 μM; ASH1L, EZH2, MLL1, SET7/9, SETD8, SUV39H2, SUV420H1, DOT1L
Description: (§1) Then, ^3H-SAM (final concentration 1 μM) was delivered into the reaction mixture to initiate the reaction. After incubation for 60 min at 30 °C, the reaction mixture was delivered to filter-paper for detection (as assessed by scintillation). […] No inhibitor control (DMSO) was considered as 100% enzyme activity. Data were analyzed using Excel and GraphPad Prism 6.0 software (GraphPad Software Inc., San Diego, CA). Values obtained for each compound are mean ± SD determined for two separate experiments.

DOT1L = molecular target: T3, DOT1L (Homo sapiens, UniProt Q8TEK3); test: HotSpot KMT activity assay, DOT1L; assay type: biochemical; conditions: mean ± SD, two experiments, read-out: % enzyme residual activ. after treatment with 12h, 1 µM, DOT1L
T3 construct: DOT1L (residues 1–416); N-terminal GST-tag; GST (N); purchased Reaction Biology Corporation
Description: as §1

ASH1L = molecular target: T4, ASH1L (Homo sapiens, UniProt Q9NR48); test: HotSpot KMT activity assay, ASH1L; assay type: biochemical; conditions: 1 µM; mean ± SD, two experiments; read-out: % enzyme residual activ. after treatment with 12h, 1 µM, ASH1L
T4 construct: ASH1L (residues 2046–2330, with an N-terminal His-tag); His (N); purchased Reaction Biology Corporation
Description: as §1

PRMT4 (HEK293T cells) = test: Western blot with pan-PRMT4 substrate antibody, HEK293T; conditions: HEK293T; 10 and 50 μM; 24 h; PRMT4sub immunoblot
Description: as §2, §3

SUV39H2 = molecular target: T5, SUV39H2 (Homo sapiens, UniProt Q9H5I1); test: HotSpot KMT activity assay, SUV39H2; assay type: biochemical; conditions: 1 µM; mean ± SD, two experiments; read-out: % enzyme residual activ. after treatment with 12h, 1 µM, SUV39H2
T5 construct: SUV39H2 (residues 46–410, C-terminus); N-terminal fusion protein with a C-terminal His-tag; His (C); purchased Reaction Biology Corporation
Description: as §1

PRMT1 = PRMT1 (Homo sapiens, UniProt Q99873); test: AlphaLISA PRMT1 activity assay (H4R3me)
Description: Then, we resolved to determine their effect on the catalytic activity of human recombinant PRMT1, chosen as representative of class I PRMTs. […] PRMT1 activity assays were performed by taking advantage of the AlphaLISA homogeneous proximity assay.
The reaction was incubated for 60 min, and then it was stopped by the addition of 5 μL of antimethyl-histone H4 arginine 3 (H4R3me) AlphaLISA acceptor beads (PerkinElmer, #AL150) (final concentration, 20 μg/mL) diluted in Epigenetic Buffer 1X (PerkinElmer, #AL008).
For each incubation step, the OptiPlate was sealed with protective foil to prevent evaporation and contamination. Donor and acceptor beads were added in subdued light.
The 100% activity (positive control) was reached using the vehicle (DMSO) while the 0% activity (negative control) was obtained without the protein. Data were analyzed using Excel software. Values obtained for each compound are mean ± SD determined for three separate experiments.

[3] = SPR, immobilized PRMT4, 25 °C, KD from ratio koff/kon
[4] = SPR, immobilized PRMT4, read-out: kon
[5] = supplementary csv, read-out: SPR KON for PRMT4

T5 sequence (Q9H5I1 46-410): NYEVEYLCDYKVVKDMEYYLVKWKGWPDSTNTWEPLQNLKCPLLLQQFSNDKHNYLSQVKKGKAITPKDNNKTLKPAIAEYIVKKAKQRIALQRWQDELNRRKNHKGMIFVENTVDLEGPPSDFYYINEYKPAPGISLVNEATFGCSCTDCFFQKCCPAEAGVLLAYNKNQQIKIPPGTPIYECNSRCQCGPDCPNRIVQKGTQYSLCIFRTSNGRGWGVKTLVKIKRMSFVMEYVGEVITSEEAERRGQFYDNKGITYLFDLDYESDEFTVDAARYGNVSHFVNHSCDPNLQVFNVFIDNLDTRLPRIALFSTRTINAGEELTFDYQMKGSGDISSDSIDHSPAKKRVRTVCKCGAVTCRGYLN
Chain of PRMT1 (Q99873 whole entry): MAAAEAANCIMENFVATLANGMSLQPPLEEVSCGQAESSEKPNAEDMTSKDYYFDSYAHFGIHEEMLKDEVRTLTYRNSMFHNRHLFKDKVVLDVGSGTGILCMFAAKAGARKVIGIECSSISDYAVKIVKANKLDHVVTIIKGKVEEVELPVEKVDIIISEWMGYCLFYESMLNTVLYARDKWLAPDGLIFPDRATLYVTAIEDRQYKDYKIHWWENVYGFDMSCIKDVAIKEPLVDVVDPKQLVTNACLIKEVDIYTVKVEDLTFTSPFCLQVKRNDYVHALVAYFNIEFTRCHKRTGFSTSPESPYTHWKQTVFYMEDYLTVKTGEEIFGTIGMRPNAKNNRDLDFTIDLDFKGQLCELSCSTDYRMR
T3 sequence (Q8TEK3 1-416): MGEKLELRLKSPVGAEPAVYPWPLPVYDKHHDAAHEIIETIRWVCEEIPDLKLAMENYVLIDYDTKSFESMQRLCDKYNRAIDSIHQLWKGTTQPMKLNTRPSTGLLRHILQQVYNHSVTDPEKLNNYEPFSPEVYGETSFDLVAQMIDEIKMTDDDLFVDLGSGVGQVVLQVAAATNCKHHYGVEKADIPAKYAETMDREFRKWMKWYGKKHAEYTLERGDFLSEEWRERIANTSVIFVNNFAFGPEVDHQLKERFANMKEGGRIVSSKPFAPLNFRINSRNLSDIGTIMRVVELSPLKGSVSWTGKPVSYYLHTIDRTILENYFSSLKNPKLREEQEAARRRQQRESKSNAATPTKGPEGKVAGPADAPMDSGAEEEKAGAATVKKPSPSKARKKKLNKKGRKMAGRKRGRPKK

| SMILES | koff ([1]; SPR, immobilized PRMT4) [s⁻¹] | Kd [1, 3] [nM] | kon [1, 4] [M⁻¹ s⁻¹] | τR [1] [s] | SPR tR for PRMT4 ([1]; supplementary csv) [s] | kon [1, 5] [M⁻¹ s⁻¹] | IC50 (PRMT7) [µM] | Kd [1] [nM] | arginine methylation levels in MCF7 cells (PRMT4 (MCF7 cells)) | inhibition of the KMT panel [2] | remaining activity at 1 µM (DOT1L) [%] | remaining activity at 1 µM (ASH1L) [%] | cellular level of arginine methylation catalyzed by PRMT4 (PRMT4 (HEK293T cells)) | remaining activity at 1 µM (SUV39H2) [%] | IC50 (PRMT1) [nM] |
| --- | --- | --- | --- | --- | --- | --- | --- | --- | --- | --- | --- | --- | --- | --- | --- |
| COC(=O)c1cc(O)c2cc(NC(=O)NCCCCNC(=N)NCCC[C@H]3O[C@@H](n4cnc5c(N)ncnc54)[C@H](O)[C@@H]3O)ccc2c1 [12g, Methyl 6-(3-(4-(3-(3-((2R,3S,4R,5R)-5-(6-Amino-9H-purin-9-yl)-3,4-dihydroxytetrahydrofuran-2-yl)propyl)guanidino)butyl)ureido)-4-hydroxy-2-naphthoate] | 0.013 | 51.7 | 250000 | 76.9 | 76.9 | 247000 | 4.68 |  |  |  |  |  |  |  |  |
| COC(=O)c1cc(O)c2cc(NC(=O)NCCCCNC(=N)NCC[C@H]3O[C@@H](n4cnc5c(N)ncnc54)[C@H](O)[C@@H]3O)ccc2c1 [12f, Methyl 6-(3-(4-(3-(2-((2R,3S,4R,5R)-5-(6-Amino-9H-purin-9-yl)-3,4-dihydroxytetrahydrofuran-2-yl)ethyl)guanidino)butyl)ureido)-4-hydroxy-2-naphthoate] | 0.068 |  | 2.7e+06 | 14.7 | 14.7 | 2.7e+06 | 0.226 | 25.2 |  |  |  |  |  |  |  |
| COC(=O)c1cc(O)c2cc(NC(=O)NCCCCCCCNC(=N)NC[C@H]3O[C@@H](n4cnc5c(N)ncnc54)[C@H](O)[C@@H]3O)ccc2c1 [12e, Methyl 6-(3-(7-(3-(((2R,3S,4R,5R)-5-(6-Amino-9H-purin-9-yl)-3,4-dihydroxytetrahydrofuran-2-yl)methyl)guanidino)heptyl)ureido)-4-hydroxy-2-naphthoate] | 0.015 | 603 | 25800 | 66.7 |  |  | 0.631 |  |  |  |  |  |  |  |  |
| COC(=O)c1cc(O)c2cc(NC(=O)NCCCCNC(=N)NC/C=C/[C@H]3O[C@@H](n4cnc5c(N)ncnc54)[C@H](O)[C@@H]3O)ccc2c1 [12h, Methyl 6-(3-(4-(3-((E)-3-((2R,3S,4R,5R)-5-(6-Amino-9H-purin-9-yl)-3,4-dihydroxytetrahydrofuran-2-yl)allyl)guanidino)butyl)ureido)-4-hydroxy-2-naphthoate] |  |  |  |  |  |  | 1.68 |  | evident reduction | none of the enzymes was inhibited; also recorded: no inhibiting effect against these enzymes | 97.7 ± 3.48 | 90.76 ± 0.13 | able to reduce the activity of PRMT4 in a concentration-dependent way | 114 ± 1.92 |  |
| COC(=O)c1cc(O)c2cc(NC(=O)NCCCCCNC(=N)NC[C@H]3O[C@@H](n4cnc5c(N)ncnc54)[C@H](O)[C@@H]3O)ccc2c1 [12c, Methyl 6-(3-(5-(3-(((2R,3S,4R,5R)-5-(6-Amino-9H-purin-9-yl)-3,4-dihydroxytetrahydrofuran-2-yl)methyl)guanidino)pentyl)ureido)-4-hydroxy-2-naphthoate] | 0.013 | 359 | 34900 | 76.9 |  |  | 0.22 |  |  |  |  |  |  |  | 300 |
